According to US20260335294A1, “TREATING CONGENITAL DISORDERS OF GLYCOSYLATION” (Mayo Foundation for Medical Education and Research, priority 2022, published 2026):
Marks after values point to notes of the source that are not given here.

Columns and labels:
[1] = test system: patient fibroblasts and healthy controls; assay: Quantification of NADPH and NADP; format: cell-based, human; conditions: 10 μM, 24 h
Method: Fibroblasts from three patient fibroblasts (P2, P4, P5) and two healthy controls were plated on day 1. The next day medium was changed. The cells were grown in the presence and absence of […] epalrestat for another 24 hours. The medium was then removed, cells were washed with cold saline solution (0.9% NaCl) and 250 μL of extraction buffer (50% MeOH, 30% acetonitrile, 20% H2O Tris-HCl pH 7.6) was added to the cells. The metabolites were precipitated overnight at −80 °C, samples were centrifugated at 20,000 rpm, 20 minutes, 4 °C, and supernatant was transferred to a fresh vial. Pellets were used for determination of protein concentration. Supernatant containing metabolites was analyzed by LC/MS less than 24 hours after the initial collection to avoid degradation of NADPH into NADP. Relative abundance of NADP and NADPH was obtained. […]

PMM2-CDG patients = assay: Urine polyols (sorbitol, mannitol) in patients on epalrestat; format: in vivo, human; conditions: for Urine Sorbitol: normal <5; for Urine Mannitol: normal < 20
Excerpt: The primary objective of the study was to assess the efficacy and safety of epalrestat treatment in 3 PMM2-CDG pediatric subjects prior to a planned Phase III clinical trial (Oral epalrestat therapy in Pediatric Subjects with PMM2-CDG, NCT04925960). The secondary objective was to assess the ability of epalrestat to improve clinically relevant aspects of PMM2-CDG such as increased urine polyols (sorbitol, mannitol), abnormal glycosylation (carbohydrate deficient transferrin), abnormal coagulation (ATIII=antithrombin III), impaired liver function (ALT=Alanine Transaminase, AST=Aspartate Transaminase), neurologic function (Brief Ataxia Rating Scale=BARS), severity of phenotype (Nijmegen Pediatric CDG Rating Scale=NPCRS). The ability of epalrestat to inhibit polyol production was monitored by evaluating urine polyol levels (sorbitol, mannitol), which are elevated in PMM2-CDG. Next, carbohydrate deficient transferrin, which is abnormal in PMM2-CDG, was evaluated in order to assess improvement of glycosylation following epalrestat treatment. CDT mono-oligo/dioligo ratio and a-oligo/dioligo ratio are used to evaluate glycosylation abnormalities. Transferrin normally occurs with two glycan chains (di-oligo). In the case of glycosylation abnormalities, glycan chains are missing (A-oligo transferrin has no glycan chains, mono-oligo has one glycan chain, di-oligo has two glycan chains). The higher ratio of a-oligo/di-oligo and mono-oligo/di-oligo indicate glycosylation abnormalities are present. Therefore, improvement in a-oligo/di-oligo and mono-oligo/di-oligo ratios can be used to monitor improvement or worsening of glycosylation status. Changes in the liver enzymes AST, ALT, which are frequently elevated in PMM2-CDG, were monitored both as part of a safety study and as part of monitoring clinical improvement in coagulation. Neurologic improvement was assessed by modified BARS scores in 2 patients (3rd patient was not eligible for the test due to age at the start of the trial). NPCRS was assessed at every visit to assess changes in the severity of the patients' phenotype. Additionally, the frequency of adverse events, changes in vital signs, complete blood count, and changes in BMI were monitored.
Two patients were started on epalrestat on single patient investigational new drug (IND) (P5 IRB: 19-010017; IND #145262; P6 Protocol PMM2-CDG-001/A). Epalrestat was initiated on the parents' own initiative in the third patient (P7). Two patients were in their second year of epalrestat treatment, while the third, was in the 3rd year of treatment. Physical, neurological, and biochemical examinations were performed in 3 PMM2-CDG patients at baseline, and at every three months after the start of the epalrestat treatment. Patients underwent NPCRS phenotype severity assessment and biological sampling at every visit. Epalrestat (Ono Pharmaceuticals, Osaka, Japan) was taken orally 3 times per day (TID) before meals in a divided dose, with dosage escalation throughout the treatment. The pharmacological profile of epalrestat was as described elsewhere (Ligezka et al, Ann. Neurol., 90(6):887-900 (2021)). The starting dosage in P5 and P6 was 0.8 mg/kg/day, while P7 was started on 0.5 mg/kg/day due to their young age. P7 dosage was increased to 0.8 mg/day after a month, once safety was established. Blood and urine samples were collected routinely. Urine polyols, carbohydrate deficient transferrin (CDT), anti-thrombin III (ATIII), liver enzymes (ALT, AST), and complete blood count (CBC) were performed. Modified Brief Ataxia Rating Scale was used to assess ataxia in the 2 patients (P5, P6; P7 was not eligible for the test due to age). The modified BARS scale included Archimedes spiral test, but not the abnormalities of the ocular pursuit system and the scale range was 0-54. Goal attainment scale (GAS) was administered as described per study protocol (ClinicalTrials.gov Identifier: NCT04199000). […]

[2] = P6, Baseline column: first available results 3 months after starting treatment, 0.8 mg/kg day

Structure (SMILES): CC(/C=C1\SC(=S)N(CC(=O)O)C1=O)=C\c1ccccc1 [epalrestat]
- NADP abundance [1]: decreased
- NADPH abundance [1]: increased
- NADPH/NADP ratio ([1]; PMM2-CDG n=3, control n=2): increased
- Urine Sorbitol (PMM2-CDG patients; P5, 12 months, 1.5 mg/kg day, baseline 19.9): 10.7 mmol/mol Cr
- Urine Mannitol (PMM2-CDG patients; P5, 12 months, 1.5 mg/kg day, baseline 648.6): 32.6 mmol/mol Cr
- Urine Sorbitol (PMM2-CDG patients; P5, 24 months, 2 mg/kg day, baseline 19.9): 7.5 mmol/mol Cr
- Urine Mannitol (PMM2-CDG patients; P5, 24 months, 2 mg/kg day, baseline 648.6): 45.3 mmol/mol Cr
- Urine Sorbitol (PMM2-CDG patients; P5, 28 months, 3 mg/kg day, baseline 19.9): 7.86 mmol/mol Cr
- Urine Mannitol (PMM2-CDG patients; P5, 28 months, 3 mg/kg day, baseline 648.6): 93.19 mmol/mol Cr
- urine mannitol during treatment (PMM2-CDG patients; P5, underwent a fructose loading test): A fluctuation in mannitol
- urine polyol levels (PMM2-CDG patients; P5-P7, words): decreased
- urine polyol levels during treatment (PMM2-CDG patients; P5-P7, words): remained mostly stable
- Urine Sorbitol (PMM2-CDG patients; P6, 12 months, 1.5 mg/kg day): 12.81 mmol/mol Cr
- Urine Mannitol (PMM2-CDG patients; P6, 12 months, 1.5 mg/kg day): 14.77 mmol/mol Cr
- Urine Sorbitol (PMM2-CDG patients; P6, 18 months, 3 mg/kg day): 9 mmol/mol Cr
- Urine Mannitol (PMM2-CDG patients; P6, 18 months, 3 mg/kg day): 47 mmol/mol Cr
- Urine Sorbitol (PMM2-CDG patients; [2]): 50.80# mmol/mol Cr
- Urine Mannitol (PMM2-CDG patients; [2]): 23.90# mmol/mol Cr
- Urine Sorbitol (PMM2-CDG patients; P7, 12 months, 1.5 mg/kg day, baseline 9.85): 0.03 mmol/mol Cr
- Urine Mannitol (PMM2-CDG patients; P7, 12 months, 1.5 mg/kg day, baseline 10.37): 1.89 mmol/mol Cr
